{"source": "patent US20230033285A1", "about": "“Protease Inhibitors for Treatment of Coronavirus Infections” (The Scripps Research Institute, priority 2021, published 2023)", "tested_on": "SARS-CoV-2", "assay": "microbe, parasite or virus in culture", "assay_type": "cell-based", "settings": "read-out: EC50, μM (Hela)", "key": {"[1]": {"settings": "Severe acute respiratory syndrome coronavirus 2, HeLa-ACE2 cells infected with SARS-CoV-2, 24 h, immunofluorescence of infected cells"}, "[2]": {"settings": "Severe acute respiratory syndrome coronavirus 2, HeLa-ACE2, 24 h"}}, "note": "Like-named read-outs stand apart in the source and are kept apart here."}
{"compound": "CCCCCCC(=O)OCC(=O)[C@H](C[C@@H]1CCNC1=O)NC(=O)[C@H](CC(C)C)NC(=O)c1cc2ccccc2[nH]1", "note": "[Compound 118, (S)-3-((S)-2-(1H-indole-2-carboxamido)-4-methylpentanamido)-2-oxo-4-((S)-2-oxopyrrolidin-3-yl)butyl heptanoate]", "values": [{"measurement": "EC50", "setting": "[1]", "value": "0.05 to 0.2", "unit": "µM"}]}
{"compound": "CCCCCCC(=O)OCC(=O)[C@H](C[C@@H]1CCNC1=O)NC(=O)[C@H](CC(C)C)NC(=O)c1cc2c(OC)cccc2[nH]1", "note": "[Compound 119, (S)-3-((S)-2-(4-methoxy-1H-indole-2-carboxamido)-4-methylpentanamido)-2-oxo-4-((S)-2-oxopyrrolidin-3-yl)butyl heptanoate]", "values": [{"measurement": "EC50", "setting": "[1]", "value": "0.05 to 0.2", "unit": "µM"}]}
{"compound": "CC(C)C[C@H](NC(=O)OCc1cccc(Cl)c1)C(=O)N[C@@H](C[C@@H]1CCNC1=O)C(=O)COC(=O)C(C)C", "note": "[Compound 120, (S)-3-((S)-2-((((3-chlorobenzyl)oxy)carbonyl)amino)-4-methylpentanamido)-2-oxo-4-((S)-2-oxopyrrolidin-3-yl)butyl isobutyrate]", "values": [{"measurement": "EC50", "setting": "[1]", "value": "> 1", "unit": "µM"}]}
{"compound": "CC(C)C[C@H](NC(=O)OCc1cccc(Cl)c1)C(=O)N[C@@H](C[C@@H]1CCNC1=O)C(=O)COC(=O)Cc1ccccc1", "note": "[Compound 121, (S)-3-((S)-2-((((3-chlorobenzyl)oxy)carbonyl)amino)-4-methylpentanamido)-2-oxo-4-((S)-2-oxopyrrolidin-3-yl)butyl 2-phenylacetate]", "values": [{"measurement": "EC50", "setting": "[2]", "value": "> 1", "unit": "µM"}]}
{"compound": "CC(C)C[C@H](NC(=O)OCc1cccc(Cl)c1)C(=O)N[C@@H](C[C@@H]1CCNC1=O)C(=O)CO", "note": "[Compound 122, 3-chlorobenzyl ((S)-1-(((S)-4-hydroxy-3-oxo-1-((S)-2-oxopyrrolidin-3-yl)butan-2-yl)amino)-4-methyl-1-oxopentan-2-yl)carbamate]", "values": [{"measurement": "EC50", "setting": "[1]", "value": "> 1", "unit": "µM"}]}
{"compound": "COc1cccc2[nH]c(C(=O)N[C@@H](CC(C)C)C(=O)N[C@@H](C[C@@H]3CCNC3=O)C(=O)COC(=O)C3CCN(C4CCCCC4)CC3)cc12", "note": "[Compound 123, (S)-3-((S)-2-(4-methoxy-1H-indole-2-carboxamido)-4-methylpentanamido)-2-oxo-4-((S)-2-oxopyrrolidin-3-yl)butyl 1-cyclohexylpiperidine-4-carboxylate]", "values": [{"measurement": "EC50", "setting": "[1]", "value": "0.5 to 1", "unit": "µM"}]}
{"compound": "COc1cccc2[nH]c(C(=O)N[C@@H](CC(C)C)C(=O)N[C@@H](C[C@@H]3CCNC3=O)C(=O)COC(=O)C3CCC(N4CCCCC4)CC3)cc12", "note": "(stereo partly drawn) [Compound 124, (S)-3-((S)-2-(4-methoxy-1H-indole-2-carboxamido)-4-methylpentanamido)-2-oxo-4-((S)-2-oxopyrrolidin-3-yl)butyl 4-(piperidin-1-yl)cyclohexane-1-carboxylate]", "values": [{"measurement": "EC50", "setting": "[1]", "value": "> 1", "unit": "µM"}]}
{"compound": "O=C[C@H](C[C@@H]1CCNC1=O)NC(=O)[C@H](CC1CC1)NC(=O)c1cc(-c2ccccc2F)on1", "note": "[Compound 125, N-((S)-3-cyclopropyl-1-oxo-1-(((S)-1-oxo-3-((S)-2-oxopyrrolidin-3-yl)propan-2-yl)amino)propan-2-yl)-5-(2-fluorophenyl)isoxazole-3-carboxamide]", "values": [{"measurement": "EC50", "setting": "[1]", "value": "0.05 to 0.2", "unit": "µM"}]}
{"compound": "CC(C)C[C@H](NC(=O)c1cc(-c2ccccc2F)on1)C(=O)N[C@H](C=O)C[C@@H]1CCCNC1=O", "note": "[Compound 126, 5-(2-fluorophenyl)-N-((S)-4-methyl-1-oxo-1-(((S)-1-oxo-3-((S)-2-oxopiperidin-3-yl)propan-2-yl)amino)pentan-2-yl)isoxazole-3-carboxamide]", "values": [{"measurement": "EC50", "setting": "[1]", "value": "0.05 to 0.2", "unit": "µM"}]}
{"compound": "CC(C)C[C@H](NC(=O)c1cc(-c2ccccn2)on1)C(=O)N[C@H](C=O)C[C@@H]1CCCNC1=O", "note": "[Compound 127, N-((S)-4-methyl-1-oxo-1-(((S)-1-oxo-3-((S)-2-oxopiperidin-3-yl)propan-2-yl)amino)pentan-2-yl)-5-(pyridin-2-yl)isoxazole-3-carboxamide]", "values": [{"measurement": "EC50", "setting": "[1]", "value": "0.5 to 1", "unit": "µM"}]}
{"compound": "CC(C)C[C@H](NC(=O)c1cc(-c2ccccn2)on1)C(=O)N[C@H](C=O)C[C@@H]1CCNC1=O", "note": "[Compound 128, N-((S)-4-methyl-1-oxo-1-(((S)-1-oxo-3-((S)-2-oxopyrrolidin-3-yl)propan-2-yl)amino)pentan-2-yl)-5-(pyridin-2-yl)isoxazole-3-carboxamide]", "values": [{"measurement": "EC50", "setting": "[1]", "value": "> 1", "unit": "µM"}]}
{"compound": "COc1cccc2[nH]c(C(=O)N[C@@H](CC(C)C)C(=O)N[C@@H](C[C@@H]3CCCNC3=O)C(=O)CO)cc12", "note": "[Compound 129, N-((S)-1-(((S)-4-hydroxy-3-oxo-1-((S)-2-oxopiperidin-3-yl)butan-2-yl)amino)-4-methyl-1-oxopentan-2-yl)-4-methoxy-1H-indole-2-carboxamide]", "values": [{"measurement": "EC50", "setting": "[1]", "value": "0.5 to 1", "unit": "µM"}]}
{"compound": "CC1(C)[C@@H]2[C@@H](C(=O)N[C@H](C#N)C[C@@H]3CCCNC3=O)N(C(=O)c3ccnc(C(F)(F)F)c3)C[C@@H]21", "note": "[Compound 130, (1R,2S,5S)-N-((S)-1-cyano-2-((S)-2-oxopiperidin-3-yl)ethyl)-6,6-dimethyl-3-(2-(trifluoromethyl)isonicotinoyl)-3-azabicyclo[3.1.0]hexane-2-carboxamide]", "values": [{"measurement": "EC50", "setting": "[1]", "value": "> 1", "unit": "µM"}]}
{"compound": "CC(=O)NC(CC(C)C(F)(F)F)C(=O)N1C[C@H]2[C@@H]([C@H]1C(=O)N[C@H](C#N)C[C@@H]1CCCNC1=O)C2(C)C", "note": "(stereo partly drawn) [Compound 131, (1R,2S,5S)-3-(2-acetamido-5,5,5-trifluoro-4-methylpentanoyl)-N-((S)-1-cyano-2-((S)-2-oxopiperidin-3-yl)ethyl)-6,6-dimethyl-3-azabicyclo[3.1.0]hexane-2-carboxamide]", "values": [{"measurement": "EC50", "setting": "[1]", "value": "0.5 to 1", "unit": "µM"}]}
{"compound": "CC(C)(C)[C@H](NC(=O)C(F)(F)F)C(=O)N1C[C@H]2[C@@H]([C@H]1C(=O)N[C@H](C=O)C[C@@H]1CCCNC1=O)C2(C)C", "note": "[Compound 132, (1R,2S,5S)-3-((S)-3,3-dimethyl-2-(2,2,2-trifluoroacetamido)butanoyl)-6,6-dimethyl-N-((S)-1-oxo-3-((S)-2-oxopiperidin-3-yl)propan-2-yl)-3-azabicyclo[3.1.0]hexane-2-carboxamide]", "values": [{"measurement": "EC50", "setting": "[2]", "value": "0.5 to 1", "unit": "µM"}]}
{"compound": "CC(C)(C)C[C@H](NC(=O)C(=O)Nc1ccccc1C(F)(F)F)C(=O)N[C@H](C[C@@H]1CCCNC1=O)C(=O)CO", "note": "[Compound 133, N^1-((S)-1-(((R)-4-hydroxy-3-oxo-1-((S)-2-oxopiperidin-3-yl)butan-2-yl)amino)-4,4-dimethyl-1-oxopentan-2-yl)-N^2-(2-(trifluoromethyl)phenyl)oxalamide]", "values": [{"measurement": "EC50", "setting": "[1]", "value": "> 1", "unit": "µM"}]}
{"compound": "CC(C)C[C@@H](O)C(=O)N[C@@H](Cc1cccc(F)c1)C(=O)N[C@@H](C[C@@H]1CCCNC1=O)C(=O)CO", "note": "[Compound 134, (R)-N-((S)-3-(3-fluorophenyl)-1-(((S)-4-hydroxy-3-oxo-1-((S)-2-oxopiperidin-3-yl)butan-2-yl)amino)-1-oxopropan-2-yl)-2-hydroxy-4-methylpentanamide]", "values": [{"measurement": "EC50", "setting": "[1]", "value": "> 1", "unit": "µM"}]}
{"compound": "CC(C)C[C@H](NC(=O)C(=O)NC12CCC(F)(CC1)CC2)C(=O)N[C@@H](C[C@@H]1CCCNC1=O)C(=O)CO", "note": "[Compound 135, N^1-(4-fluorobicyclo[2.2.2]octan-1-yl)-N^2-((S)-1-(((S)-4-hydroxy-3-oxo-1-((S)-2-oxopiperidin-3-yl)butan-2-yl)amino)-4-methyl-1-oxopentan-2-yl)oxalamide]", "values": [{"measurement": "EC50", "setting": "[1]", "value": "> 1", "unit": "µM"}]}
{"compound": "CC(C)CCC(=O)N[C@@H](CC(C)(C)C)C(=O)N[C@H](C#N)C[C@@H]1CCCNC1=O", "note": "[Compound 136, (S)-N-((S)-1-cyano-2-((S)-2-oxopiperidin-3-yl)ethyl)-4,4-dimethyl-2-(4-methylpentanamido)pentanamide]", "values": [{"measurement": "EC50", "setting": "[1]", "value": "> 1", "unit": "µM"}]}
{"compound": "CCCCCCCCCCCCCCC(=O)OCC(=O)[C@H](C[C@@H]1CCNC1=O)NC(=O)[C@H](CC(C)C)NC(=O)c1cc2c(OC)cccc2[nH]1", "note": "[Compound 137, (S)-3-((S)-2-(4-methoxy-1H-indole-2-carboxamido)-4-methylpentanamido)-2-oxo-4-((S)-2-oxopyrrolidin-3-yl)butyl pentadecanoate]", "values": [{"measurement": "EC50", "setting": "[1]", "value": "0.2 to 0.5", "unit": "µM"}]}
{"compound": "CC(C)C[C@H](NC(=O)C(=O)Nc1ccccc1F)C(=O)N[C@@H](C[C@@H]1CCCNC1=O)C(=O)COC(=O)c1ccccc1C#N", "note": "[Compound 138, (S)-3-((S)-2-(2-((2-fluorophenyl)amino)-2-oxoacetamido)-4-methylpentanamido)-2-oxo-4-((S)-2-oxopiperidin-3-yl)butyl 2-cyanobenzoate]", "values": [{"measurement": "EC50", "setting": "[1]", "value": "0.05 to 0.2", "unit": "µM"}]}
